Measurements taken from patent publication US8003660B2, “Modulators of muscarinic receptors” (Vertex Pharmaceuticals Incorporated, priority 2006, dated 2011).

Columns and labels:
Type in all cases: cell-based
M1 muscarinic receptor = biological target: T1, M1 muscarinic receptor (Homo sapiens, UniProt P11229); assay: Functional mobilization of intracellular calcium (FLIPR) in CHO cells expressing M1; conditions: for M1 Activity: CHO cells expressing M1, FLIPR calcium assay; for Emax: CHO, 100% efficacy = maximum response obtained with the Carbachol control
T1 construct: expressed in transfected cells; host or cells: CHO (M1-CHO)
T1 sequence (P11229 1-460): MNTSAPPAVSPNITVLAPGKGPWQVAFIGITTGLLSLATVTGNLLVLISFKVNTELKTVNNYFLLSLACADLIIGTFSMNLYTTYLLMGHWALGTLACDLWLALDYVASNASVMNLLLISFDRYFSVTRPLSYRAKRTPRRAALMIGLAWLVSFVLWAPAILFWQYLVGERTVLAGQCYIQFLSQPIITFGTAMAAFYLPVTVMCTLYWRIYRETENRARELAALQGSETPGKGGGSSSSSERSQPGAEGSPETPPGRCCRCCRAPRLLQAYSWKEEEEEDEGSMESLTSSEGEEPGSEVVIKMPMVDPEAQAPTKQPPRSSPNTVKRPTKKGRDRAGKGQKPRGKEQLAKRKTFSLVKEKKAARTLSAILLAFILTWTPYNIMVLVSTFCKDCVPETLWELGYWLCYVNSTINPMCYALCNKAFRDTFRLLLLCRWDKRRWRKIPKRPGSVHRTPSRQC
Outline: (§1)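 Recombinant CHO cells loaded with Fluo-3 AM or Calcium 3 dye in pH 7.4 buffer containing 1 mM probenecid, with 0.5% final DMSO. For agonism, compound is added directly. For inhibition, it is preincubated 15 min, or co-applied, before carbachol at EC80. FLIPR fluorescence (ex 488, em 540 nm) is recorded for 60 s.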

M2 muscarinic receptor = biological target: T2, M2 muscarinic receptor (Homo sapiens, UniProt P08172); assay: Functional mobilization of intracellular calcium (FLIPR) in CHO cells expressing M2; conditions: for M2 Activity: CHO cells expressing M2, FLIPR calcium assay; for Emax: CHO, 100% efficacy = maximum response obtained with the Carbachol control
T2 construct: expressed in transfected cells; host or cells: CHO (M2-CHO)
T2 sequence (P08172 1-466): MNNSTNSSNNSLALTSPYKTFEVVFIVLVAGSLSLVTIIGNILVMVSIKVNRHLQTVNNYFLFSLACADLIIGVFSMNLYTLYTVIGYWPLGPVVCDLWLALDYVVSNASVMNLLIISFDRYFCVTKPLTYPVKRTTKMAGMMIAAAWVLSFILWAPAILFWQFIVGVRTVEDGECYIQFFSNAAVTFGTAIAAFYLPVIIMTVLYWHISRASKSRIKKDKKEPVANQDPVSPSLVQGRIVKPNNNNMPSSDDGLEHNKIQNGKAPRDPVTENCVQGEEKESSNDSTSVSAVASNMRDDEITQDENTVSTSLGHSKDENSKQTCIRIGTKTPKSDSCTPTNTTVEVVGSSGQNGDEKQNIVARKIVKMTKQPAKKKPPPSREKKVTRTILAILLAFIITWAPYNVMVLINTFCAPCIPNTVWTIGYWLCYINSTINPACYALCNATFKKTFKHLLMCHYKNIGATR
Outline: as §1

M3 muscarinic receptor = biological target: T3, M3 muscarinic receptor (Homo sapiens, UniProt P20309); assay: Functional mobilization of intracellular calcium (FLIPR) in CHO cells expressing M3; conditions: for M3 Activity: CHO cells expressing M3, FLIPR calcium assay; for Emax: CHO, 100% efficacy = maximum response obtained with the Carbachol control
T3 construct: expressed in transfected cells; host or cells: CHO (M3-CHO)
T3 sequence (P20309 whole entry): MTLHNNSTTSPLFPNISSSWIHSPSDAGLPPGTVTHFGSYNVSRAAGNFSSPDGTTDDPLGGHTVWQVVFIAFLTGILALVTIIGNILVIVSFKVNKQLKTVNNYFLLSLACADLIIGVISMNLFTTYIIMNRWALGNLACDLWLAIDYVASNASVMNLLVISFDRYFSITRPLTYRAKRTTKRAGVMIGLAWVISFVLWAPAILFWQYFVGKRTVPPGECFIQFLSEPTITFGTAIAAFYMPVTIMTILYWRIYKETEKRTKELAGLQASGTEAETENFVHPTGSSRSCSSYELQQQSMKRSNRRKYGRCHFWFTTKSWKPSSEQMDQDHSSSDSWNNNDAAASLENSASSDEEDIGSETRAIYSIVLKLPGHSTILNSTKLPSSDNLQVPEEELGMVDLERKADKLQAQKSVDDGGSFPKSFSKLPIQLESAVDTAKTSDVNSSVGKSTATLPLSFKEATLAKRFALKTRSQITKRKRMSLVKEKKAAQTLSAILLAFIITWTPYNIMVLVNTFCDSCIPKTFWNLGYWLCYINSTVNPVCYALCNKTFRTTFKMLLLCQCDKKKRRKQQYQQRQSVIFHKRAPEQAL
Outline: as §1

M4 muscarinic receptor = biological target: T4, M4 muscarinic receptor (Homo sapiens, UniProt P08173); assay: Functional mobilization of intracellular calcium (FLIPR) in CHO cells expressing M4; conditions: for M4 Activity: CHO cells expressing M4, FLIPR calcium assay; for Emax: CHO, 100% efficacy = maximum response obtained with the Carbachol control
T4 construct: expressed in transfected cells; host or cells: CHO (M4-CHO)
T4 sequence (P08173 1-479): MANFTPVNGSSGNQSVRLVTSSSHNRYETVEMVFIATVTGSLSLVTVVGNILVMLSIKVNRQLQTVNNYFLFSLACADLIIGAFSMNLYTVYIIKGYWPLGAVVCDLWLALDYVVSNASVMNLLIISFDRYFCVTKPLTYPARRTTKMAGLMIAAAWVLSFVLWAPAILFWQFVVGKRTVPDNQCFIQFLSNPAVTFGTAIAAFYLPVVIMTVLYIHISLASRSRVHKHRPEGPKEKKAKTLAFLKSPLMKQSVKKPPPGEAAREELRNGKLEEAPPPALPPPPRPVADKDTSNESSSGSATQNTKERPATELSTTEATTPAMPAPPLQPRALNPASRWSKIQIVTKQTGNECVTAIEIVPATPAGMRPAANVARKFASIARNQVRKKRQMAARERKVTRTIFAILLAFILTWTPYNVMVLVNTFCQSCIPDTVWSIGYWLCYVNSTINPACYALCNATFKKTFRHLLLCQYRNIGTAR
Outline: as §1

SMILES | M1 Activity (M1 muscarinic receptor) | Emax (M1 muscarinic receptor) | M2 Activity (M2 muscarinic receptor) | Emax (M2 muscarinic receptor) | M3 Activity (M3 muscarinic receptor) | Emax (M3 muscarinic receptor) | M4 Activity (M4 muscarinic receptor) | Emax (M4 muscarinic receptor)
CC(=O)N[C@H]1CC2(CCN(CC(N)=O)CC2)c2ccccc21 [compound 229] | + (activity was measured to be greater than 5.0 μM) | < 25% | + (activity was measured to be greater than 5.0 μM) | < 25% | + (activity was measured to be greater than 5.0 μM) | < 25% | + (activity was measured to be greater than 5.0 μM) | < 25%
CCC(=O)N[C@H]1CC2(CCN(CCC(C)(C)C)CC2)c2ccccc21 [compound 230] | – | 25 to 100% | – | < 25% | – | < 25% | – | 25 to 100%
CCC(=O)N[C@H]1CC2(CCN(CCC(C)C)CC2)c2ccccc21 [compound 231] | + (activity was measured to be greater than 5.0 μM) | < 25% | + (activity was measured to be greater than 5.0 μM) | < 25% | + (activity was measured to be greater than 5.0 μM) | < 25% | +++ (activity was measured to be less than 2.0 μM) | < 25%
CN1CCC2(CCCc3ccccc32)CC1 [compound 232] | + (activity was measured to be greater than 5.0 μM) | < 25% | + (activity was measured to be greater than 5.0 μM) | < 25% | + (activity was measured to be greater than 5.0 μM) | < 25% | + (activity was measured to be greater than 5.0 μM) | < 25%
COC(=O)CN1CCC2(CC1)C[C@H](NC(C)=O)c1ccccc12 [compound 233] | + (activity was measured to be greater than 5.0 μM) | 25 to 100% | + (activity was measured to be greater than 5.0 μM) | < 25% | + (activity was measured to be greater than 5.0 μM) | < 25% | + (activity was measured to be greater than 5.0 μM) | < 25%
CCOc1ccc(CN2CCC3(CC[C@H](NC(C)=O)c4ccccc43)CC2)cc1 [compound 234] | ++ (activity was measured to be from 2.0 μM to 5.0 μM) | 25 to 100% | + (activity was measured to be greater than 5.0 μM) | < 25% | + (activity was measured to be greater than 5.0 μM) | < 25% | ++ (activity was measured to be from 2.0 μM to 5.0 μM) | 25 to 100%
CC(=O)N[C@H]1CC2(CCN(CC(=O)NCC(C)C)CC2)c2ccccc21 [compound 235] | + (activity was measured to be greater than 5.0 μM) | < 25% | + (activity was measured to be greater than 5.0 μM) | < 25% | + (activity was measured to be greater than 5.0 μM) | < 25% | + (activity was measured to be greater than 5.0 μM) | < 25%
CC(=O)N[C@H]1CC2(CCN(C(C)CC(C)C)CC2)c2ccccc21 (stereo partly shown) [compound 236] | + (activity was measured to be greater than 5.0 μM) | < 25% | + (activity was measured to be greater than 5.0 μM) | < 25% | + (activity was measured to be greater than 5.0 μM) | < 25% | + (activity was measured to be greater than 5.0 μM) | < 25%
COC(=O)CCCN1CCC2(CC1)C[C@H](NC(C)=O)c1ccccc12 [compound 237] | + (activity was measured to be greater than 5.0 μM) | 25 to 100% | + (activity was measured to be greater than 5.0 μM) | < 25% | + (activity was measured to be greater than 5.0 μM) | < 25% | + (activity was measured to be greater than 5.0 μM) | 25 to 100%
C/C=C(\C)CN1CCC2(CC1)C[C@H](NC(C)=O)c1ccccc12 [compound 238] | + (activity was measured to be greater than 5.0 μM) | < 25% | + (activity was measured to be greater than 5.0 μM) | < 25% | + (activity was measured to be greater than 5.0 μM) | < 25% | + (activity was measured to be greater than 5.0 μM) | < 25%
COc1cc2c(cc1OC)C1(CCN(C(=O)OC(C)(C)C)CC1)CC2=O [compound 239] | + (activity was measured to be greater than 5.0 μM) | < 25% | + (activity was measured to be greater than 5.0 μM) | < 25% | + (activity was measured to be greater than 5.0 μM) | < 25% | + (activity was measured to be greater than 5.0 μM) | < 25%
CCNC(=O)CN1CCC2(CC1)C[C@H](NC(C)=O)c1ccccc12 [compound 241] | + (activity was measured to be greater than 5.0 μM) | < 25% | + (activity was measured to be greater than 5.0 μM) | < 25% | + (activity was measured to be greater than 5.0 μM) | < 25% | + (activity was measured to be greater than 5.0 μM) | < 25%
C=CCCCN1CCC2(CC1)C[C@H](NC(C)=O)c1ccccc12 [compound 242] | + (activity was measured to be greater than 5.0 μM) | 25 to 100% | + (activity was measured to be greater than 5.0 μM) | < 25% | + (activity was measured to be greater than 5.0 μM) | < 25% | ++ (activity was measured to be from 2.0 μM to 5.0 μM) | 25 to 100%
CC(=O)N[C@H]1CC2(CCN(CC(C)(C)C)CC2)c2ccccc21 [compound 243] | + (activity was measured to be greater than 5.0 μM) | 25 to 100% | + (activity was measured to be greater than 5.0 μM) | 25 to 100% | + (activity was measured to be greater than 5.0 μM) | < 25% | +++ (activity was measured to be less than 2.0 μM) | 25 to 100%
CC(=O)N[C@H]1CC2(CCN(CCC(C)(C)C)CC2)c2ccccc21 [compound 244] | +++ (activity was measured to be less than 2.0 μM) | 25 to 100% | + (activity was measured to be greater than 5.0 μM) | < 25% | + (activity was measured to be greater than 5.0 μM) | < 25% | +++ (activity was measured to be less than 2.0 μM) | 25 to 100%
CC(C)(C)CN1CCC2(CC1)CC(C(=O)O)c1ccccc12 (stereo not shown) [compound 246] | + (activity was measured to be greater than 5.0 μM) | < 25% | + (activity was measured to be greater than 5.0 μM) | < 25% | + (activity was measured to be greater than 5.0 μM) | < 25% | + (activity was measured to be greater than 5.0 μM) | < 25%
